From publication PMC9002334 (Virology, 2022)
pEC50: −log10 of the molar value.

Columns and labels:
[1] = test system: HCoV-229E; experiment: microbe, parasite or virus in culture; assay type: cell-based, Human coronavirus 229E
[2] = target: T1, SARS-CoV-2 M^pro (Severe acute respiratory syndrome coronavirus 2, UniProt P0DTD1); conditions: ref Zhu and Xie, 2020; cited from earlier work
[3] = target: T1, SARS-CoV-2 M^pro; experiment: Inhibition assay of the SARS-CoV-2 M^pro activity; assay type: biochemical
[4] = after the intake of 150 mg in 1 h; ref de Whalley et al., 1990; Olthof et al., 2000; cited from earlier work

| SMILES | Concentration at which inhibition of HCoV-229E replication starts [1] | Inhibition of the SARS-CoV-2 M^pro activity [2] | Inhibitive effect on the M^pro activity at 100 μM [3] | also measured |
| --- | --- | --- | --- | --- |
| Oc1cc(O)c2c(c1)O[C@H](c1ccc(O)c(O)c1)[C@H](O)C2 [(−)-epicatechin] | 20 µM | could not | did not inhibit | Inhibitory effect on the M^pro activity ([3]; range of concentrations from 0 to 200 μM): did not show an inhibitory effect |
| O=c1c(O)c(-c2ccc(O)c(O)c2)oc2cc(O)cc(O)c12 [Quercetin, quercetin] | 5.0 µM | – | – | Quercetin concentration in plasma [4]: 5.0 ± 1.0 µM; Effect on HCoV-229E replication at 2.5 μM ([1]; Huh-7 cells, 2.5 μM): slightly reduce; Inhibition of HCoV-229E replication at concentration higher than 10 μM ([1]; Huh-7 cells, higher than 10 μM): strongly inhibit; pEC50 ([1]; Human coronavirus 229E, Huh-7, 24 h, read-out: EC50, inhibition of HCoV-229E replication): 5.31 |
| O=c1c(O[C@@H]2O[C@H](CO)[C@@H](O)[C@H](O)[C@H]2O)c(-c2ccc(O)c(O)c2)oc2cc(O)cc(O)c12 [Isoquercitrin, quercetin-3-O-glycoside] | 2.5 µM | – | – | – |
| C[C@@H]1O[C@@H](OC[C@H]2O[C@@H](Oc3c(-c4ccc(O)c(O)c4)oc4cc(O)cc(O)c4c3=O)[C@H](O)[C@@H](O)[C@@H]2O)[C@H](O)[C@H](O)[C@H]1O [Rutin, rutin] | – | – | most effectiveness | – |
| O=C(O[C@@H]1Cc2c(O)cc(O)cc2O[C@@H]1c1cc(O)c(O)c(O)c1)c1cc(O)c(O)c(O)c1 [EGCG, epigallocatechin gallate, reference compound] | 2.5 µM | effectively inhibited | – | – |
